# Results as given in patent US4247542A, “A-40104 Antibiotics and process for production thereof” (priority 1978, dated 1981).
# How the values were obtained:
# swine dysentery = settings: W. E. Brown et al. U.S. Pat. No. 4,041,175; cited from earlier work
# [1] = system: Pasteurella multocida (turkey); experiment: standard in vitro test against Pasteurella; type: cell-based
# From the text: Another veterinary aspect of this invention is the activity of the A-40104 antibiotics against Pasteurella species. P. multocida, for example, is a causative agent of respiratory infection in cattle, poultry, and swine. P. hemolytica is a major cause of respiratory disease in cattle. The activity of A-40104 factor A and its dihydro derivative against Pasteurella, as determined by standard in vitro tests, is summarized in Table X.
# Spiroplasma citri = experiment: in vitro test against Spiroplasma citri; type: cell-based; settings: levels as low as, read-out: level inhibiting S. citri
# From the text: Another important aspect of this invention is the activity of the A-40104 antibiotics against Spiroplasmas. Spiroplasma citri is the causative agent of citrus-stubborn disease; another Spiroplasma, corn-stunt Spiroplasma, affects the growth of corn. In in vitro tests against Spiroplasma citri A-40104 factor A and its dihydro derivative inhbit S. citri when applied at levels as low as 0.01 ppm.
# powdery mildew [2] = experiment: control of powdery mildew on bean plants; type: in vivo; settings: soil drench at 100 ppm
# From the text: (§1) The A-40104 antibiotics are also active against plant pathogens. […] The systemic activity of these antibiotics is especially advantageous in the control of plant pathogens or Spiroplasmas.
# Mycoplasma gallisepticum = experiment: in vitro broth-dilution MIC, mycoplasma; type: cell-based
# From the text: (§2) The minimal inhibitory concentrations (MIC's) of A-40104 factor A; 19,20-dihydro-A-40104 factor A; and the tetraacetyl derivative of A-40104A against various mycoplasma species, as determined by in vitro broth-dilution studies, are summarized in Table IX.
# Mycoplasma synoviae = experiment: in vitro broth-dilution MIC, mycoplasma; type: cell-based
# From the text: as §2
# Eubacterium aerofaciens = experiment: standard agar-dilution test, anaerobic bacteria; type: cell-based; settings: Collinsella aerofaciens, read after 24 hours
# From the text: Table VIII summarizes the activity of A-40104 factor A, as determined by the standard agar-dilution test.
# *MIC determined by the agardilution method. Endpoints were read after 24
# powdery mildew [3] = experiment: control of powdery mildew on barley plants; type: in vivo; settings: soil drench at 100 ppm
# From the text: as §1
MIC (Spiroplasma citri) [µg/mL],Compound,effect in swine dysentery (swine dysentery),MIC [1] [µg/mL],control of powdery mildew (powdery mildew [2]),MIC (Mycoplasma gallisepticum) [µg/mL],MIC (Mycoplasma synoviae) [µg/mL],solubility in chloroform (solubility; chloroform),solubility in alcohols (solubility; ethanol),solubility in alcohols (solubility; methanol),solubility in water (solubility; water),MIC (Eubacterium aerofaciens) [µg/mL],control of powdery mildew (powdery mildew [3])
,"C=C[C@]1(C)C[C@@H](OC(=O)CO)[C@]2(C)[C@H](C)CC[C@]3(CCC(=O)[C@H]32)[C@@H](C)[C@@H]1O [A-40104 factor C, pleuromutilin]",effective in the treatment of swine dysentery,,,,,,,,,,
≤ 0.01,"CCC1(C)CC(OC(=O)CO[C@@H]2OC[C@@H](O)[C@H](O)[C@H]2O)C2(C)C(C)CCC3(CCC(=O)C32)C(C)C1O (stereo partly shown) [19,20-dihydro-A-40104 factor A, 19,20-Dihydro-A-40104 Factor A]",,12.5,,,,,,,,,
,"C=CC1(C)CC(OC(=O)CO[C@@H]2OC[C@@H](O)[C@H](O)[C@H]2O)C2(C)C(C)CCC3(CCC(=O)C32)C(C)C1O (stereo partly drawn) [A-40104 factor A, β,D-xylopyranosyl acetal derivative of pleuromutilin]",,12.5,control of powdery mildew is obtained,< 0.78,< 0.78,partially soluble,soluble,soluble,insoluble,16,control of powdery mildew is obtained
